# Measured values reported in US20240269132A1, “COMPOSITIONS AND METHODS FOR TREATING POLYCYTHEMIA” (Disc Medicine, Inc., priority 0001, published 2024).
# Assays:
# Assay type in all cases: in vivo, C57BL/6J mice
# [1] = Plasma drug concentration in the EPO-induced erythrocytosis study; conditions: C57BL/6J, mouse, po, 6 hours after the last dose, 30 mg/kg orally once daily day 1 to 15, mice (FIG. 1C)
# Source text: (§1) The EPO-induced secondary erythrocytosis model was used to evaluate the in vivo pharmacodynamic effect of GlyT1 inhibitor in preventing, treating, or reducing the progression rate and/or severity of polycythemia vera. Erythropoietin (EPO) stimulates the production of red blood cells and results in increased hematocrit in mice after daily dosing for 7 days at 50 IU. Therefore, the EPO model mimics the hematological parameters of polycythemia vera where JAK2 mutation drives the erythrocytosis. Briefly, 30 mg/kg of GlyT1 inhibitor bitopertin or vehicle control was administrated orally into wildtype C57BL/6J mice (10 mice per group) once daily from day 1 to day 15. 50 IU EPO was administrated daily by intraperitoneal route from day 8 to day 14 to induce erythrocytosis resembling the pathological process of polycythemia vera (FIG. 1A). Blood samples were collected from submaxillary on day 8 before the first EPO administration and on day 15, 6 hours after the last dose of GlyT1 inhibitor for CBC panel analysis using Sysmex XN-1000™ hematology analyzer. Bioanalysis of drug concentration was performed in plasma collected 6 hours after the last dose. All mice were weighed and humanely euthanized. The spleen was weighed and the spleen index was calculated via dividing the weight of spleen by the whole-body weight.
# [2] = tested on: EPO-induced secondary erythrocytosis model; assay: EPO-induced secondary erythrocytosis murine model: spleen index and CBC panel; conditions: 30 mg/kg orally once daily
# Source text: as §1
# [3] = Body weight in the EPO-induced erythrocytosis study; conditions: 30 mg/kg orally once daily, 14-day treatment, EPO model (FIG. 1B)
# Source text: as §1
# [4] = tested on: DPO-induced secondary erythrocytosis model; assay: DPO-induced secondary erythrocytosis murine model: CBC panel
# Protocol: Darbepoietin-alpha (DPO) is a long-lasting analogue of EPO. To investigate the in vivo pharmacodynamic effect of GlyT1 inhibitor in preventing, treating, or reducing the progression rate and/or severity of polycythemia vera for longer periods, DPO was used to stimulate the production of red blood cells and mimicking the hematological features of polycythemia vera where JAK2 mutation drives the erythrocytosis.
# (§2) Briefly, C57BL/6J mice were administrated with DPO subcutaneously at 10 μg/kg/week for 2 weeks to induce erythrocytosis resembling the pathological process of polycythemia vera (FIG. 2A). 30 mg/kg or 60 mg/kg of GlyT1 inhibitor bitopertin or vehicle control was administrated orally into wild type C57BL/6J mice (10 mice per group for the vehicle and 30 mg/kg groups; 15 mice for the 60 mg/kg group) once daily from day 7 to day 15. The 60 mg/kg group was dosed at 20 mg/kg on day 7, 40 mg/kg on day 8-9, 50 mg/kg on day 10-11, 60 mg/kg on day 12-15. Blood samples were collected from submaxillary on day 0 before the first DPO administration, on day 7 before the first dose of GlyT1 inhibitor, and on day 15, 6 hours after the dosing of GlyT1 inhibitor for CBC panel analysis using Sysmex XN-1000™ hematology analyzer.
# [5] = Body weight in the DPO-induced erythrocytosis study; conditions: 30 or 60 mg/kg orally once daily, 8-day treatment, DPO model (FIG. 2B)
# Protocol: as §2
smiles,measurement,setting,value
C[C@H](Oc1ccc(S(C)(=O)=O)cc1C(=O)N1CCN(c2ncc(C(F)(F)F)cc2F)CC1)C(F)(F)F [bitopertin],concentration at 6 h,[1],639 ± 38 ng/mL
same,hematocrit (HCT %),"[2]; EPO model, day 15 (FIG. 1E)",reduced
same,RBC count,"[2]; EPO model, day 15 (FIG. 1F)",reduced
same,Hemoglobin levels,"[2]; EPO model, day 15 (FIG. 1G)",reduced
same,spleen index (spleen weight / whole-body weight),"[2]; EPO 50 IU i.p. day 8-14, EPO + vehicle 1.56%, normal mice 0.39% (FIG. 1D)",1.26%
same,body-weight changes,[3],No major body-weight changes
same,reticulocyte hemoglobin (RET-He),"[4]; 30 or 60 mg/kg orally once daily day 7-15, DPO model (FIG. 2F)",significant reduction
same,mean corpuscular hemoglobin (MCH),"[4]; 30 or 60 mg/kg orally once daily day 7-15, DPO model (FIG. 2G)",significant reduction
same,mean corpuscular volume (MCV),"[4]; 30 or 60 mg/kg orally once daily day 7-15, DPO model (FIG. 2H)",slightly reduced
same,hematocrit (HCT %),"[4]; 30 or 60 mg/kg orally once daily day 7-15, DPO model, in a dose dependent manner (FIG. 2C)",reduced
same,RBC count,"[4]; 30 or 60 mg/kg orally once daily day 7-15, DPO model, in a dose dependent manner (FIG. 2D)",reduced
same,Hemoglobin levels (HGB),"[4]; 30 or 60 mg/kg orally once daily day 7-15, DPO model, in a dose dependent manner (FIG. 2E)",reduced
same,body-weight changes,[5],No major body-weight changes
